The values below come from publication PMC7646200 (Xenobiotica; the fate of foreign compounds in biological …, 2020).

In data set [1] the test system is sheep liver cytosol. In words: Sulfonation of 7-hydroxycoumarin derivatives by sheep liver cytosol. As to conditions: sheep liver cytosol; for Vmax: value (95 % confidence interval).
The subject of data set [2] is human liver cytosol. Nature of the data set: Sulfonation of 7-hydroxycoumarin derivatives by human liver cytosol. Conditions: human liver cytosol; value (95 % confidence interval).
The nature of data set [3]: in vitro. As to conditions: both, Beagle, dog, pH 7.4.
The subject of data set [4] is pig liver cytosol. In words: Sulfonation of 7-hydroxycoumarin derivatives by pig liver cytosol. As to conditions: pig liver cytosol; value (95 % confidence interval).
Data set [5] can be described thus: in vitro. As to conditions: female, sheep, pH 7.4.
Data set [6] is described as follows: in vitro. Conditions: DBA/2N/Kuo, mouse, pH 7.4.
The test system of data set [7] is dog liver cytosol. Nature of the data set: Sulfonation of 7-hydroxycoumarin derivatives by dog liver cytosol. As to conditions: dog liver cytosol; for intrinsic clearance (Vmax/Km): rank among species; for Vmax: value (95 % confidence interval).
For data set [8], the system named is rat liver cytosol. Nature of the data set: Sulfonation of 7-hydroxycoumarin derivatives by rat liver cytosol. As to conditions: rat liver cytosol; for Vmax: value (95 % confidence interval); for sulfonation efficiency, intrinsic clearance (Vmax/Km): rank among species.
A short description of data set [9]: in vitro. As to conditions: female, Dutch belted, rabbit, pH 7.4.
Data set [10] is described as follows: in vitro. Conditions: female, pig, pH 7.4.
The subject of data set [11] is rabbit liver cytosol. In words: Sulfonation of 7-hydroxycoumarin derivatives by rabbit liver cytosol. As to conditions: rabbit liver cytosol; for Vmax: value (95 % confidence interval); for sulfonation rate: 10 μM substrate.
Data set [12] in a line: in vitro. As to conditions: male, Wistar, rat, pH 7.4.
Data set [13] can be described thus: in vitro. As to conditions: male, human, pH 7.4.
The test system of data set [14] is mouse liver cytosol. In words: Sulfonation of 7-hydroxycoumarin derivatives by mouse liver cytosol. As to conditions: for sulfonation rate: 10 μM substrate; for Vmax: mouse liver cytosol, value (95 % confidence interval).
Data set [15] concerns rabbit liver cytosol. As to conditions: pH 7.4.
Data set [16] relates to dog liver cytosol. Conditions: pH 7.4.
The subject of data set [17] is sheep liver cytosol. As to conditions: pH 7.4.
Data set [18] relates to rat liver cytosol. As to conditions: pH 7.4.
Data set [19] has as its system human liver cytosol. Conditions: pH 7.4.
Data set [20] concerns pig liver cytosol. Conditions: pH 7.4.
Data set [21] deals with mouse liver cytosol. As to conditions: pH 7.4.

For orientation: Km means the substrate concentration at which the rate is half of its maximum. `Cc1c(C)c2ccc(O)cc2oc1=O` [compound 4, 3,4-dimethyl-7-hydroxycoumarin]: the Vmax in the data set with sheep liver cytosol [1] is reported as 300 (230–370) nmol/(min * g protein); in the data set with human liver cytosol [2] it was 210 (0–1300) nmol/(min * g protein); in the data set with pig liver cytosol [4] it was 67 (18–120) nmol/(min * g protein); in the data set on dog liver cytosol [7], 330 (250–420) nmol/(min * g protein); with rat liver cytosol [8] it was 380 (140–620) nmol/(min * g protein); in the data set with rabbit liver cytosol [11], 13 (0–28) nmol/(min * g protein). Besides, the Vmax in the data set with mouse liver cytosol [14] is 17 (14–20) nmol/(min * g protein). Moreover, the Km worked out at 0.62 µM in the data set “in vitro [3]”; 0.46 µM in the data set “in vitro [5]”; 0.11 µM in the data set “in vitro [6]”; 0.65 µM in “in vitro [9]”; 6.4 µM in “in vitro [10]”; 1.1 µM in the data set “in vitro [12]”. In addition, the Km in “in vitro [13]” stood at 24 µM. Besides, the “intrinsic clearance (Vmax/Km)” value with dog liver cytosol [7] is listed as “highest”. The sulfonation rate entry with mouse liver cytosol [14] (female mouse liver cytosol) and in the data set on mouse liver cytosol [14] (male mouse liver cytosol) was “Slow” in each case.

On to `COc1ccc(-c2cc3ccc(O)cc3oc2=O)cc1` [compound 11, 3-(4-methoxyphenyl)-7-hydroxycoumarin], for which the Vmax is recorded as 410 (190–620) nmol/(min * g protein) in the data set with sheep liver cytosol [1]; 18 (12–23) nmol/(min * g protein) in the data set with human liver cytosol [2]; 5.5 (3.3–7.8) nmol/(min * g protein) with pig liver cytosol [4]; 300 (150–710) nmol/(min * g protein) with dog liver cytosol [7]; 210 (190–260) nmol/(min * g protein) in the data set with rat liver cytosol [8]; 190 (100–260) nmol/(min * g protein) in the data set with rabbit liver cytosol [11]. The Vmax with mouse liver cytosol [14] is on record as 100 (84–150) nmol/(min * g protein). For the same compound, the Michaelis constant (Km) in the data set “in vitro [3]” is 0.22 µM; in the data set “in vitro [5]” it was 9.8 µM; in the data set “in vitro [6]”, 1.2 µM; in “in vitro [9]” it was 3.4 µM; in “in vitro [10]”, 1.3 µM; in “in vitro [12]”, 0.57 µM. The Michaelis-Menten constant (Km) in the data set “in vitro [13]” was 0.11 µM. Besides, in the data set with dog liver cytosol [7], the “intrinsic clearance (Vmax/Km)” value is “highest”.

Regarding `O=c1oc2cc(O)ccc2cc1-c1cccnc1` [compound 13, 3-(4-pyridin-3-yl)-7-hydroxycoumarin], the sulfonation rate entry in the data set on sheep liver cytosol [1] (10 μM substrate) and in the data set on rabbit liver cytosol [11] was “Slow” in each case. Moreover, the Vmax in the data set with sheep liver cytosol [1] is 80 (0–230) nmol/(min * g protein); in the data set on human liver cytosol [2] it was 59 (53–71) nmol/(min * g protein); in the data set with pig liver cytosol [4], 24 (17–31) nmol/(min * g protein); in the data set on dog liver cytosol [7], 360 (330–430) nmol/(min * g protein); with rabbit liver cytosol [11], 120 (100–210) nmol/(min * g protein); in the data set on mouse liver cytosol [14] it was 160 (110–200) nmol/(min * g protein). In addition, the Michaelis-Menten constant (Km) in the data set on rabbit liver cytosol [15] was 10 µM; in the data set on dog liver cytosol [16] it was 3.3 µM; with sheep liver cytosol [17], 6.8 µM; with rat liver cytosol [18], 2.3 µM; in the data set with human liver cytosol [19] it was 6.6 3.7–6.8) μM; with pig liver cytosol [20], 4 µM. Moreover, the Km with mouse liver cytosol [21] stood at 4.3 µM. Besides, the “sulfonation efficiency, intrinsic clearance (Vmax/Km)” value in the data set with rat liver cytosol [8] is recorded as “efficiently”.

For the compound `O=c1oc2cc(O)ccc2cc1-n1cncn1` [compound 14, 3-(1H-1,2,4-tirazol-1-yl)-7-hydroxycoumarin], the Vmax is 220 (93–350) nmol/(min * g protein) in the data set on sheep liver cytosol [1]; 69 (55–84) nmol/(min * g protein) in the data set on human liver cytosol [2]; 39 (13–65) nmol/(min * g protein) with pig liver cytosol [4]; 200 (180–220) nmol/(min * g protein) in the data set on dog liver cytosol [7]; 230 (200–260) nmol/(min * g protein) in the data set with rat liver cytosol [8]; 32 (25–39) nmol/(min * g protein) with rabbit liver cytosol [11]. Moreover, the Vmax in the data set on mouse liver cytosol [14] was 78 (69–88) nmol/(min * g protein). Also, the Km stood at 2.8 µM in the data set with rabbit liver cytosol [15]; 3.9 µM in the data set on dog liver cytosol [16]; 12 µM in the data set on sheep liver cytosol [17]; 1.3 µM in the data set on rat liver cytosol [18]; 4.7 µM with human liver cytosol [19]; 3 µM in the data set on pig liver cytosol [20]. The Km in the data set on mouse liver cytosol [21] came out at 4.9 µM. Also, in the data set on rat liver cytosol [8], the “sulfonation efficiency, intrinsic clearance (Vmax/Km)” value was “efficiently”. Also, the sulfonation rate entry in the data set with rabbit liver cytosol [11] was “Slow”.
